{"source": "paper PMC9743090", "about": "“Induction of Ferroptosis in Glioblastoma and Ovarian Cancers by a New Pyrrole Tubulin Assembly Inhibitor” (Journal of Medicinal Chemistry, 2022)", "key": {"tubulin": {"system": "tubulin", "assay": "Inhibition of [3H]colchicine binding to tubulin", "conditions": "inhibitor at 1:5:5 μM", "protocol": "The assembly reaction mixtures contained 0.8 M monosodium glutamate (pH 6.6 with HCl in a 2 M stock solution), 10 μM tubulin, 4% (v/v) DMSO, and varying concentrations of the drug. Following a 15 min preincubation at 30 °C, samples were chilled on ice, GTP to 0.4 mM was added, and turbidity development was followed at 350 nm in a temperature-controlled recording spectrophotometer for 20 min at 30 °C. The extent of reaction was measured. Full experimental details were previously described.[63] For the colchicine binding assay, reaction mixtures contained 1.0 μM tubulin, 5.0 μM [^3H]colchicine, and 5.0 or 1.0 μM inhibitor and were incubated for 10 min at 37 °C. Complete details were described previously.[64]"}, "OVCAR-3 OC cells": {"system": "OVCAR-3 OC cells", "assay": "OVCAR-3 proliferation assay (cell count, Trypan Blue)", "assay_type": "cell-based", "conditions": "Homo sapiens, 48 h incubation, read-out: IC50 cell viability OVCAR-3", "protocol": "The methodology for the evaluation of the growth of human MCF-7 breast carcinoma cells was previously described, except that cells were grown for 96 h for IC50 determinations.[66] U-87 MG and OVCAR-3 proliferation assays were performed plating 10^4 cells/cm^2 in a Multiwell 24. The day after, cells were treated with compound 15, and DMSO was used as a control. Cells were counted 48 h later with a Bürker counting chamber, after dilution in TrypanBlue (#T6146 Sigma-Aldrich).\nAll experiments were performed multiple times to reach statistical significance, as specified in the figure legends. Statistical analysis was performed using GraphPad Prism version 7.0 for Mac. IC50 values were calculated by using a nonlinear regression formula, using the percentage of cells number and the logarithmic value of drug concentrations. Data were analyzed with analysis of variance (one-way ANOVA test). Data with *p < 0.05 were considered statistically significant."}, "[1]": {"system": "PARP cleavage in U-87 MG cells", "assay": "PARP cleavage by western blot in U-87 MG cells", "assay_type": "cell-based, human", "conditions": "immunoblotting", "protocol": "Western blotting was performed as previously described[68] by lysing cells in denaturing buffer sodium dodecyl sulfate (SDS)–urea. Extracts were sonicated, their protein quantified, and aliquots were loaded into an SDS–polyacrylamide gel. After electrophoresis, the proteins in the gel were transferred onto a nitrocellulose membrane (cat. no. NBA085C001EA, PerkinElmer), which then was blocked with 5% milk in TBS-T (Tris HCl with 0.1% Tween 20) and incubated with primary antibodies overnight: PARP antibody diluted 1:1000 (cat. no. 9542S CST) and actin antibody diluted 1:10,000 (cat. no. A5441, Sigma Aldrich). The next day, the membrane was extensively washed with TBS-T and incubated with horse radish peroxidase (HRP)-conjugated secondary antibodies diluted in the 5% milk solution. Detection of the HRP signal was performed using ECL (cat. no. K-12045-D50, Advansta)."}, "U-87 MG": {"system": "U-87 MG", "assay": "In vivo U-87 MG xenograft, tumor size and tumor tissue analysis", "parameters": "species or system BALB/C^nu/nu mice", "protocol": "Briefly, all 10 week-old female BALB/C^nu/nu mice (24 mice) were purchased from the Shanghai University of Traditional Chinese Medicine with Institutional Animal Care and Use Committee approval in accordance with institutional guidelines. All mice were randomly divided into four groups. In #1 group (4 mice), 1 × 10^8 cells/mL from U-87 MG at the logarithmic growth phase were harvested and inoculated subcutaneously, followed by intraperitoneal injection of 100 μL of 15 (25 mg/kg) every 2 days. In #2 group (4 mice), 1 × 10^8 cells/mL from U-87 MG at the logarithmic growth phase were harvested and inoculated subcutaneously, followed by intraperitoneal injection of 100 μL of saline every 2 days. In #3 group (4 mice), 1 × 10^8 cells/mL from SKOV-3 at the logarithmic growth phase were harvested and inoculated subcutaneously, followed by intraperitoneal injection of 100 μL 15 (25 mg/kg) every 2 days. In #4 group (4 mice), 1 × 10^8 cells/mL from SKOV-3 at the logarithmic growth phase were harvested and inoculated subcutaneously, followed by intraperitoneal injection of 100 μL of saline every 2 days. After continuous feeding for 40 days, the mice were sacrificed, and the tumors were removed. The tumors were weighed, and the volumes were calculated using the following formula: Tumor volume (cm^3) = (ab^2)/2 (a: the longest axis (cm), b: the shortest axis (cm)).\nBriefly, fresh tissues were immersed in 4% paraformaldehyde (Sigma-Aldrich) for fixation at room temperature for 30 min. The tissues were then dehydrated in an ethanol gradient, embedded in paraffin, sectioned (thickness: 6 μm), and immersed in xylene for dewaxing. Tissue sections were blocked with immunohistochemical blocking solution (Beyotime Biotechnology Co., Ltd., Zhejiang, China) at 37 °C for 30 min. The blocking solution was then discarded, and the sections were washed three times at room temperature for 5 min, each with immunohistochemical washing solution (Beyotime Biotechnology). Then, primary antibodies (rabbit anti-GPX4 antibody [EPNCIR144] (ab125066), rabbit anti-ferritin heavy chain antibody [EPR18878] (ab183781), and rabbit anti-Ki67 antibody (ab15580), Abcam, MA, USA) were added and incubated at 37 °C for 45 min. After incubation, the antibody solution was discarded, and the sections were washed three times at room temperature for 5 min each with immunohistochemical washing solution (Beyotime Biotechnology). Then, the secondary antibody (goat anti-rabbit IgG H&L (Alexa Fluor 488), Abcam, MA, USA) was added, and the tissues were incubated at 37 °C for 45 min. After incubation, the antibody solution was discarded, and the sections were washed three times at room temperature for 5 min, each with immunohistochemical washing solution (Beyotime Biotechnology). Finally, immunofluorescence blocking solution (Sigma-Aldrich) was added, and the sections were mounted.\nAccording to the instructions of the RNAprep pure Tissue Kit (TIANGEN Biotech (Beijing) China) Co., Ltd., Beijing, China), to about 20 mg of […] tissue specimen was added 800 μL of lysis solution, and the mixture was ground, homogenized, and centrifuged. To the supernatant, 200 μL of chloroform was added, and the mixture was mixed by inverting and centrifuged at 4 °C at 13,400 × g for 15 min. To the supernatant, two volumes of absolute ethanol were added, mixed by inversion, and centrifuged at 4 °C at 13,400 × g for 30 min. Ethanol precipitation and centrifugation of the supernatant were repeated. The RNA pellet was suspended with 500 μL of 75% ethanol and centrifuged at 13,400 × g at 4 °C for 5 min. The supernatant was discarded, the excess liquid was removed, and the pellet was dissolved in 300 μL of DECP water. One microliter of the RNA solution was used to measure the ratio of A260–A280 (generally 1.8–2.0) to determine the purity and approximate concentration of the RNA. […]"}}}
{"smiles": "COc1cc(C(=O)c2cn(-c3ncccn3)cc2-c2ccco2)cc(OC)c1OC", "note": "[Compound 15, (4-(Furan-2-yl)-1-(pyrimidyl-2-yl)-1H-pyrrol-3-yl)(3,4,5-trimethoxyphenyl)methanone]", "values": [{"measurement": "Inhib. colch. binding 1-5-5 (% ± SD)", "setting": "tubulin", "value": "88 ± 0.4", "unit": "%"}, {"measurement": "IC50", "setting": "OVCAR-3 OC cells", "value": 2.85, "unit": "nM"}, {"measurement": "concentration from which PARP cleavage occurs", "setting": "[1]", "value": "≥ 20", "unit": "nM"}, {"measurement": "ATP level in tumor tissue vs control", "setting": "U-87 MG; 25 mg/kg i.p. every 2 days", "value": "significantly lower"}, {"measurement": "Fe2+ concentration in tumor tissue vs control", "setting": "U-87 MG; 25 mg/kg i.p. every 2 days", "value": "significantly higher"}, {"measurement": "LPO level in tumor tissue vs control", "setting": "U-87 MG; 25 mg/kg i.p. every 2 days", "value": "appreciably higher"}, {"measurement": "MDA level in tumor tissue vs control", "setting": "U-87 MG; 25 mg/kg i.p. every 2 days", "value": "appreciably higher"}, {"measurement": "T-GSH level in tumor tissue vs control", "setting": "U-87 MG; 25 mg/kg i.p. every 2 days", "value": "significantly lower"}, {"measurement": "lactic acid level in tumor tissue vs control", "setting": "U-87 MG; 25 mg/kg i.p. every 2 days", "value": "appreciably higher"}, {"measurement": "tumor size (volume and weight) vs saline control", "setting": "U-87 MG; 25 mg/kg i.p. every 2 days, day 40", "value": "significantly smaller"}, {"measurement": "CD31 expression in tumor tissue vs control", "setting": "U-87 MG; immunofluorescence staining", "value": "significantly lower expression"}, {"measurement": "FTH1 expression in tumor tissue vs control", "setting": "U-87 MG; immunofluorescence staining", "value": "significantly lower expression"}, {"measurement": "GPX4 expression in tumor tissue vs control", "setting": "U-87 MG; immunofluorescence staining", "value": "significantly lower expression"}, {"measurement": "Ki67 expression in tumor tissue vs control", "setting": "U-87 MG; immunofluorescence staining", "value": "significantly lower expression"}]}
